Laboratory results reported in US9125913B2, “Bcl-2-selective apoptosis-inducing agents for the treatment of cancer and immune diseases” (AbbVie Inc., priority 2008, dated 2015).

Test system: GST-Bcl-2
Assay: TR-FRET binding assay, Bcl-2
Details: TR-FRET Ki values
Outline: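 Compounds serially diluted in DMSO from 50 μM (2× starting concentration, 10% DMSO), mixed with GST-tagged protein, F-Bak peptide probe and Tb-labeled antibody, incubated 3 h at room temperature.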

Compound	Binding selectivity ratio (Bcl-XL Ki/Bcl-2 Ki)
CC1(C)CCC(CN2CCN(c3ccc(C(=O)NS(=O)(=O)c4ccc(CCC5CCOCC5)c([N+](=O)[O-])c4)c(Oc4ccc5[nH]ccc5c4)c3)CC2)=C(c2ccc(Cl)cc2)C1 [EXAMPLE 296, 4-(4-{[2-(4-chlorophenyl)-4,4-dimethylcyclohex-1-en-1-yl]methyl}piperazin-1-yl)-2-(1H-indol-5-yloxy)-N-{[3-nitro-4-(2-tetrahydro-2H-pyran-4-ylethyl)phenyl]sulfonyl}benzamide]	>1014.4
O=C(NS(=O)(=O)c1ccc(NCC2CCOCC2)c(S(=O)(=O)C(F)(F)F)c1)c1ccc(N2CCN(Cc3cc(OCCN4CCOCC4)ccc3-c3ccc(Cl)cc3)CC2)cc1Oc1ccccc1 [Example 117, 4-(4-{[4′-chloro-4-(2-morpholin-4-ylethoxy)-1,1′-biphenyl-2-yl]methyl}piperazin-1-yl)-2-phenoxy-N-({4-[(tetrahydro-2H-pyran-4-ylmethyl)amino]-3-[(trifluoromethyl)sulfonyl]phenyl}sulfonyl)benzamide]	>287.1
O=C(NS(=O)(=O)c1ccc(NCC2CCOCC2)c([N+](=O)[O-])c1)c1ccc(N2CCN(Cc3cc(OCCO)ccc3-c3ccc(Cl)cc3)CC2)cc1Oc1cccc2[nH]ccc12 [EXAMPLE 213, 4-(4-{[4′-chloro-4-(2-hydroxyethoxy)-1,1′-biphenyl-2-yl]methyl}piperazin-1-yl)-2-(1H-indol-4-yloxy)-N-({3-nitro-4-[(tetrahydro-2H-pyran-4-ylmethyl)amino]phenyl}sulfonyl)benzamide]	>66000
CN(C)CC(=O)N1CCO[C@H](COc2ncc(S(=O)(=O)NC(=O)c3ccc(N4CCN(CC5=C(c6ccc(Cl)cc6)CC(C)(C)CC5)CC4)cc3Oc3cccc4[nH]ncc34)cc2Cl)C1 [EXAMPLE 425, N-[(5-chloro-6-{[(2S)-4-(N,N-dimethylglycyl)morpholin-2-yl]methoxy}pyridin-3-yl)sulfonyl]-4-(4-{[2-(4-chlorophenyl)-4,4-dimethylcyclohex-1-en-1-yl]methyl}piperazin-1-yl)-2-(1H-indazol-4-yloxy)benzamide]	1282
CC1(C)CCC(CN2CCN(c3ccc(C(=O)NS(=O)(=O)c4ccc(NC5CCN(C6CCOCC6)CC5)c([N+](=O)[O-])c4)c(Oc4cccc5[nH]ncc45)c3)CC2)=C(c2ccc(Cl)cc2)C1 [EXAMPLE 401, 4-(4-{[2-(4-chlorophenyl)-4,4-dimethylcyclohex-1-en-1-yl]methyl}piperazin-1-yl)-2-(1H-indazol-4-yloxy)-N-({3-nitro-4-[(1-tetrahydro-2H-pyran-4-ylpiperidin-4-yl)amino]phenyl}sulfonyl)benzamide]	>162.14
CC1(C)CCC(CN2CCN(c3ccc(C(=O)NS(=O)(=O)c4ccc(NC5CCS(=O)(=O)C5)c([N+](=O)[O-])c4)c(Oc4ccc5[nH]ccc5c4)c3)CC2)=C(c2ccc(Cl)cc2)C1 (centres unmarked) [EXAMPLE 276, 4-(4-{[2-(4-chlorophenyl)-4,4-dimethylcyclohex-1-en-1-yl]methyl}piperazin-1-yl)-N-({4-[(1,1-dioxidotetrahydrothien-3-yl)amino]-3-nitrophenyl}sulfonyl)-2-(1H-indol-5-yloxy)benzamide]	2650.8
O=C(NS(=O)(=O)c1ccc(NCCCN2CCOCC2)cc1)c1ccc(N2CCN(Cc3ccccc3-c3ccc(Cl)cc3)CC2)cc1Oc1ccccc1 [Example 78, 4-{4-[(4′-chloro-1,1′-biphenyl-2-yl)methyl]piperazin-1-yl}-N-({4-[(3-morpholin-4-ylpropyl)amino]phenyl}sulfonyl)-2-phenoxybenzamide]	>5.9
O=C(NS(=O)(=O)c1ccc(NCC2CCOCC2)c([N+](=O)[O-])c1)c1ccc(N2CCN(CC3=C(c4ccc(Cl)cc4)CCC(N4CCCC4)C3)CC2)cc1Oc1ccc2[nH]ccc2c1 (centres unmarked) [EXAMPLE 272, 4-(4-{[2-(4-chlorophenyl)-5-pyrrolidin-1-ylcyclohex-1-en-1-yl]methyl}piperazin-1-yl)-2-(1H-indol-5-yloxy)-N-({3-nitro-4-[(tetrahydro-2H-pyran-4-ylmethyl)amino]phenyl}sulfonyl)benzamide]	>58011.8
CC1(C)CCC(CN2CCN(c3ccc(C(=O)NS(=O)(=O)c4ccc(NCCC(F)(F)F)c([N+](=O)[O-])c4)c(Oc4cccc5[nH]ccc45)c3)CC2)=C(c2ccc(Cl)cc2)C1 [EXAMPLE 323, 4-(4-{[2-(4-chlorophenyl)-4,4-dimethylcyclohex-1-en-1-yl]methyl}piperazin-1-yl)-2-(1H-indol-4-yloxy)-N-({3-nitro-4-[(3,3,3-trifluoropropyl)amino]phenyl}sulfonyl)benzamide]	>695.2
CC1(C)CCC(CN2CCN(c3ccc(C(=O)NS(=O)(=O)c4ccc(NN5CCOCC5)c([N+](=O)[O-])c4)c(Oc4ccc5[nH]ccc5c4)c3)CC2)=C(c2ccc(Cl)cc2)C1 [EXAMPLE 260, 4-(4-{[2-(4-chlorophenyl)-4,4-dimethylcyclohex-1-en-1-yl]methyl}piperazin-1-yl)-2-(1H-indol-5-yloxy)-N-{[4-(morpholin-4-ylamino)-3-nitrophenyl]sulfonyl}benzamide]	>607.2
CC1(C)CCC(CN2CCN(c3ccc(C(=O)NS(=O)(=O)c4ccc(NCCCN5CCNC(=O)C5)c([N+](=O)[O-])c4)c(Oc4cccc5[nH]ccc45)c3)CC2)=C(c2ccc(Cl)cc2)C1 [EXAMPLE 223, 4-(4-{[2-(4-chlorophenyl)-4,4-dimethylcyclohex-1-en-1-yl]methyl}piperazin-1-yl)-2-(1H-indol-4-yloxy)-N-[(3-nitro-4-{[3-(3-oxopiperazin-1-yl)propyl]amino}phenyl)sulfonyl]benzamide]	574.1
CN1CCN(Nc2ccc(S(=O)(=O)NC(=O)c3ccc(N4CCN(CC5=C(c6ccc(Cl)cc6)CCC(O)C5)CC4)cc3Oc3ccc4[nH]ccc4c3)cc2[N+](=O)[O-])CC1 (centres unmarked) [EXAMPLE 226, 4-(4-{[2-(4-chlorophenyl)-5-hydroxycyclohex-1-en-1-yl]methyl}piperazin-1-yl)-2-(1H-indol-5-yloxy)-N-({4-[(4-methylpiperazin-1-yl)amino]-3-nitrophenyl}sulfonyl)benzamide]	577.7
CN1CCC(Nc2ccc(S(=O)(=O)NC(=O)c3ccc(N4CCN(CC5=C(c6ccc(Cl)cc6)CC(C)(C)CC5)C(CO)C4)cc3Oc3ccc4[nH]ccc4c3)cc2[N+](=O)[O-])CC1 (centres unmarked) [EXAMPLE 218, 4-[4-{[2-(4-chlorophenyl)-4,4-dimethylcyclohex-1-en-1-yl]methyl}-3-(hydroxymethyl)piperazin-1-yl]-2-(1H-indol-5-yloxy)-N-({4-[(1-methylpiperidin-4-yl)amino]-3-nitrophenyl}sulfonyl)benzamide]	738.2
CC1(C)CCC(CN2CCN(c3ccc(C(=O)NS(=O)(=O)c4ccc(NCC5CCOCC5)c(C#N)c4)c(Oc4ccc5[nH]ccc5c4)c3)CC2)=C(c2ccc(Cl)cc2)C1 [EXAMPLE 367, 4-(4-{[2-(4-chlorophenyl)-4,4-dimethylcyclohex-1-en-1-yl]methyl}piperazin-1-yl)-N-({3-cyano-4-[(tetrahydro-2H-pyran-4-ylmethyl)amino]phenyl}sulfonyl)-2-(1H-indol-5-yloxy)benzamide]	>143.2
O=C(NS(=O)(=O)c1ccccc1OCCN1CCCCC1)c1ccc(N2CCN(Cc3ccccc3-c3ccc(Cl)cc3)CC2)cc1Oc1ccccc1 [Example 32, 4-{4-[(4′-chloro-1,1′-biphenyl-2-yl)methyl]piperazin-1-yl}-2-phenoxy-N-{[2-(2-piperidin-1-ylethoxy)phenyl]sulfonyl}benzamide]	>10.8
CC1(C)CCC(CN2CCN(c3ccc(C(=O)NS(=O)(=O)c4cnc(OCC5CCC(F)(F)CC5)c(Cl)c4)c(Oc4cccc5[nH]cnc45)c3)CC2)=C(c2ccc(Cl)cc2)C1 [EXAMPLE 463, 2-(1H-benzimidazol-4-yloxy)-N-({5-chloro-6-[(4,4-difluorocyclohexyl)methoxy]pyridin-3-yl}sulfonyl)-4-(4-{[2-(4-chlorophenyl)-4,4-dimethylcyclohex-1-en-1-yl]methyl}piperazin-1-yl)benzamide]	6043
CC(C)N(C)CCCNc1ccc(S(=O)(=O)NC(=O)c2ccc(N3CCN(Cc4ccccc4-c4ccc(Cl)cc4)CC3)cc2Oc2ccccc2)cc1[N+](=O)[O-] [Example 93, 4-{4-[(4′-chloro-1,1′-biphenyl-2-yl)methyl]piperazin-1-yl}-N-{[4-({3-[isopropyl(methyl)amino]propyl}amino)-3-nitrophenyl]sulfonyl}-2-phenoxybenzamide]	60
CC1(C)CCC(CN2CCN(c3ccc(C(=O)NS(=O)(=O)c4ccc(NN5CCCCC5)c([N+](=O)[O-])c4)c(Oc4cccc5[nH]ccc45)c3)CC2)=C(c2ccc(Cl)cc2)C1 [EXAMPLE 283, 4-(4-{[2-(4-chlorophenyl)-4,4-dimethylcyclohex-1-en-1-yl]methyl}piperazin-1-yl)-2-(1H-indol-4-yloxy)-N-{[3-nitro-4-(piperidin-1-ylamino)phenyl]sulfonyl}benzamide]	>13.9
CC1(C)CCC(CN2CCN(c3ccc(C(=O)NS(=O)(=O)c4ccc(NC5CCC(N6CCOCC6)CC5)c([N+](=O)[O-])c4)c(Oc4ccc5[nH]ccc5c4)c3)CC2)=C(c2ccc(Cl)cc2)C1 (centres unmarked) [EXAMPLE 363, 4-(4-{[2-(4-chlorophenyl)-4,4-dimethylcyclohex-1-en-1-yl]methyl}piperazin-1-yl)-2-(1H-indol-5-yloxy)-N-({4-[(4-morpholin-4-ylcyclohexyl)amino]-3-nitrophenyl}sulfonyl)benzamide]	>3670.5
O=C(NS(=O)(=O)c1ccc(NCCCN2CCOCC2)c([N+](=O)[O-])c1)c1ccc(N2CCN(Cc3ccccc3-c3ccc(Cl)cc3)CC2)cc1Oc1cccc2[nH]ccc12 [Example 58, 4-{4-[(4′-chloro-1,1′-biphenyl-2-yl)methyl]piperazin-1-yl}-2-(1H-indol-4-yloxy)-N-({4-[(3-morpholin-4-ylpropyl)amino]-3-nitrophenyl}sulfonyl)benzamide]	265.5
